Assay results taken from US8354414B2, “Substituted bicyclic pyrimidines” (Cephalon, Inc, priority 2006, dated 2013).

Legend:
CDK5/GST-p25 = molecular target: T1, CDK5/GST-p25 (Homo sapiens, UniProt Q00535); experiment: Inhibition of CDK5/GST-p25 kinase activity (ELISA with time-resolved fluorescence readout); type: biochemical
T1 construct: The final construct, encoding for full-length human CDK5; made in house; host or cells: Sf21 insect cells (baculovirus co-infection)
Procedure: Two recombinant baculoviral constructs were created, one encoding for human CDK5 and the other encoding for human p25 with an amino-terminal glutathione-S-transferase (GST) tag. PCR amplification of full-length CDK5 was performed utilizing human brain cDNA as a template and Pfu Turbo polymerase (Strategene). The PCR product from this reaction was subcloned into the baculoviral expression vector pFASTBAC1 (Gibco/BRL). The final construct, encoding for full-length human CDK5 (base pairs 25-903 of GenBank Accession #NM_004935), is 292 amino acids long with a predicted MW of 33.3 kDa.
For p25, the active truncated form of p35, amino acids 108-307 were PCR-amplified from human fetal brain cDNA (Clontech QUICK-Clone cDNA) using the Advantage 2 PCR system (Clontech). The PCR product was subcloned into the baculoviral transfer vector pFBGSTP (an engineered derivative of the baculoviral transfer vector pFASTBAC1). The final baculoviral construct encodes for base pairs 419-1021 of GenBank Accession #NM_003885, with an amino-terminal GST tag. The expressed GST-p25 is 444 amino acids long with a predicted MW of 50.3 kDa.
The CDK5/GST-p25 complex was generated by coexpression. Sf21 cells were cultured in TNM-FHS media at a density of 1.5×10^6 cells/mL and infected with each recombinant virus at MOI values of 5 (for CDK5) and 10 (for GST-p25). The cells were harvested 40 h after infection. For purification, the 100,000×g supernatant solution was used. Expression was confirmed by running samples on SDS-PAGE, followed by immunoblot analysis utilizing antibodies against CDK5 (anti-CDK5 (268-283); Calbiochem #219449) and p35 (Santa Cruz #sc820). The CDK5/GST-p25 complex was purified by glutathione affinity chromatography.
Compounds were tested for their ability to inhibit the kinase activity of recombinant baculoviral CDK5/GST-p25 using an enzyme-linked immunosorbent assay (ELISA) with time-resolved fluorescence (TRF) readout. Briefly, each 384-well FluoroNunc Maxisorp plate (Cat # 460372) plate was coated with 50 μl/well of 50 μg/ml substrate solution (recombinant GST-Rb(773-928)) in Tris-buffered saline (TBS). The CDK5/GST-p25 assay mixture (total volume=50 μl/well) consisting of 20 mM HEPES (pH 7.2), 10 μM ATP, 10 mM MgCl2, 5 mM EGTA, 25 mM β-glycerophosphate, 0.05% BSA, 2.5% DMSO, and various concentrations of test compound were then added to the assay plate. Enzyme (2 ng/ml CDK5/GST-p25) was added and the reaction was allowed to proceed at 37° C. for 20 minutes. Detection of the phosphorylated product was performed by adding 50 μl/well of phospho-Rb (Ser-780) antibody (Cell Signaling # 9307) diluted 1:10,000 in antibody dilution buffer (0.1% BSA in TBST). After 1-hour incubation at 37° C., 50 μl/well of Eu-Nl labelled anti-rabbit antibody (Wallac # AD0105; 1:50,000 in antibody dilution buffer) was added. Incubation at 37° C. then proceeded for 1 hour, followed by addition of 50 μl enhancement solution (Wallac #1244-105). The plate was gently agitated and after a few minutes, the fluorescence of the resulting solution was measured using a Multilabel Reader (Victor2 Model # 1420-018 or Envision Model # 2100). Inhibition data were analyzed using ActivityBase and IC50 curves were generated using XLFit 3.0.5.

His6-GSK-3β = molecular target: T2, His6-GSK-3β (Homo sapiens, UniProt P49841); experiment: Inhibition of His6-GSK-3β kinase activity (ELISA-based format, time-resolved fluorescence readout); type: biochemical; conditions: class symbols; read-out: GSK3β IC50
T2 construct: made in house; host or cells: Sf21 insect cells (baculovirus)
Description: Full-length GSK-3β was amplified from a sequence-verified I.M.A.G.E. EST acquired from Research Genetics (Invitrogen, Clone ID# CSODB003YJ02). The final sequence-verified cDNA contained the coding region for a NH2-terminal tag, which encoded for 6 histidines and then eight vector-encoded amino acids prior to the start of GSK3β, which contained by # 43-1342 of Genbank Accession # NM_002093, encoding amino acids #2-419. The predicted molecular weight of the tagged, 435 amino acid, full-length protein is 48.5 kDa. The major structural element of this protein is the kinase domain, which is from amino acids #56-340. Recombinant baculoviral DNA was prepared by transposition in E. coli (BAC-TO-BAC system: Invitrogen) and the virus generated and amplified in Sf21 insect cells. A suspension culture of Sf21 cells was infected at an MOI of 0.7 and cell density of 1.5×10^6 cells/mL in Excell 420 serum-free media (JRH BioScience) and harvested 65 h after infection. The 100,000×g supernatant solution was used for purification. Expression was confirmed by running samples on SDS-PAGE, followed by immunoblot analysis utilizing both a Penta-HIS antibody (Qiagen #34660) and a GSK-3α/GSK-3β antibody (Calbiochem #368662, data not shown). The His6-tagged protein was purified to in one step by Ni-NTA affinity chromatography.
Inhibitory effects of compounds on baculoviral GSK-3β kinase activity were evaluated using an ELISA-based format in a 384-well FluoroNunc Maxisorp plate (Cat # 460372) with a time-resolved fluorescence readout. Briefly, each plate was coated with 50 μl/well of 20 μg/ml substrate solution (recombinant GST-Rb) in Tris-buffered saline (TBS). The GSK-3β assay mixture (total volume=50 μl/well) consisting of 50 mM HEPES (pH 7.2), 20 μM ATP, 10 mM MgCl2, 5 mM EGTA, 25 mM β-glycerophosphate, 0.05% BSA, 2.5% DMSO, and various concentrations of test compound were then added to the assay plate. Enzyme (200 ng/ml His6-GSK-3β) was then added and the reaction was allowed to proceed at 37° C. for 30 minutes. Detection of the phosphorylated product was performed by adding 50 μl/well of phospho-Rb (Ser-780) antibody (Cell Signaling # 9307) diluted 1:10,000 in antibody dilution buffer (0.1% BSA in TBST). After 1-hour incubation at 37° C., 50 μl/well of Eu-N1 labelled anti-rabbit antibody (Wallac # AD0105; 1:50,000 in antibody dilution buffer) was added. Incubation at 37° C. then proceeded for 1 hour, followed by addition of 50 μl enhancement solution (Wallac #1244-105). The plate was gently agitated and after a few minutes, the fluorescence of the resulting solution was measured using a Multilabel Reader (Victor2 Model # 1420-018 or Envision Model 2100). Inhibition data were analyzed using ActivityBase and IC50 curves were generated using XLFit 3.0.5.

T2 sequence (P49841 2-419): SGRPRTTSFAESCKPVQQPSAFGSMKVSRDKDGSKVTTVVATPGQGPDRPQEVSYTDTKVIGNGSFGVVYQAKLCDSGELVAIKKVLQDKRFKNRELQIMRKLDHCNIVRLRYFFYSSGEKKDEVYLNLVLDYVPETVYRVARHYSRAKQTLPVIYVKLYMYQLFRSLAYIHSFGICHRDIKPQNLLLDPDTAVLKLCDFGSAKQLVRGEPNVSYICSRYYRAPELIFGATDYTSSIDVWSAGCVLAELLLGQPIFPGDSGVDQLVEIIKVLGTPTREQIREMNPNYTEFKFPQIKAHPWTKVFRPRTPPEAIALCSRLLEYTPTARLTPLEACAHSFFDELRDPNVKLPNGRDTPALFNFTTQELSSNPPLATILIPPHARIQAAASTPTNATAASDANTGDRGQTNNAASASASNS
T1 sequence (Q00535 whole entry): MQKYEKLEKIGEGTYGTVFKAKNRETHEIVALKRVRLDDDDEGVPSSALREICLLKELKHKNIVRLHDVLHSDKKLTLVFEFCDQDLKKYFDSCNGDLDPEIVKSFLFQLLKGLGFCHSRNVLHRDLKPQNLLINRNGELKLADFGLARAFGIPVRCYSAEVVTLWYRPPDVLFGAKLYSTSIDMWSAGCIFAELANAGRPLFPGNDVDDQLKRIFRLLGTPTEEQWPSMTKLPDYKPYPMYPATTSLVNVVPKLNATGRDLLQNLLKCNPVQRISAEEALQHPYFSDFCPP
T1 sequence (Q15078 108-307 partner limits assumed): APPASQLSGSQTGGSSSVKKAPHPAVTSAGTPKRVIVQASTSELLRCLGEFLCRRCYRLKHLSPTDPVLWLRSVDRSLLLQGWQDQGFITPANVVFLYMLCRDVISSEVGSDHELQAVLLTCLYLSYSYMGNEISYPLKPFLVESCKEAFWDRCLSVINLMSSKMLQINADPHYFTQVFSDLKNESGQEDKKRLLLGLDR

Work on N#Cc1ccc2c(c1)C(c1nc(NCCc3ccccn3)nc3nn(C4CCCC4)cc13)C(=O)N2 (stereo not drawn) [Example 125, 3-[2-cyclopentyl-6-(2-pyridin-2-yl-ethylamino)-2H-pyrazolo [3,4-d]pyrimidin-4-yl]-2-oxo-2,3-dihydro-1H-indole-5-carbonitrile] yielded an IC50 (CDK5/GST-p25; class symbols) of over 10000 nM and an IC50 (His6-GSK-3β) of under 300 nM.
N#Cc1ccc2c(c1)C(c1nc(NCCc3ccncc3)nc3nn(C4CCCC4)cc13)C(=O)N2 (stereo not drawn) [Example 126, 3-(2-cyclopentyl-6-(2-pyridin-4-yl-ethylamino)-2H-pyrazolo [3,4-d]pyrimidin-4-yl)-2-oxo-2,3-dihydro-1H-indole-5-carbonitrile] showed an IC50 (CDK5/GST-p25; class symbols) of under 300 nM and an IC50 (His6-GSK-3β) of under 300 nM.
N#Cc1ccc2c(c1)C(c1nc(N3CCN(CCN4CCCC4)CC3)nc3nn(C4CCCC4)cc13)C(=O)N2 (stereo not drawn) [Example 127, 3-{2-cyclopentyl-6-[4-(2-pyrrolidin-1-yl-ethyl)-piperazin-1-yl]-2H-pyrazolo[3,4-d]pyrimidin-4-yl}-2-oxo-2,3-dihydro-1H-indole-5-carbonitrile] was tested, and the IC50 (CDK5/GST-p25; class symbols) was over 10000 nM and the IC50 (His6-GSK-3β) was under 300 nM.
In the case of N#Cc1ccc2c(c1)C(c1nc(N3CCN(CCCc4ccccc4)CC3)nc3nn(C4CCCC4)cc13)C(=O)N2 (stereo not drawn) [Example 128, 3-{2-cyclopentyl-6-[4-(3-phenyl-propyl)-piperazin-1-yl]-2H-pyrazolo[3,4-d]pyrimidin-4-yl}-2-oxo-2,3-dihydro-1H-indole-5-carbonitrile], the IC50 (CDK5/GST-p25; class symbols) is reported as over 10000 nM and the IC50 (His6-GSK-3β) is reported as under 300 nM.
With N#Cc1ccc2c(c1)C(c1nc(N3CCN(CCc4ccccn4)CC3)nc3nn(C4CCCC4)cc13)C(=O)N2 (stereo not drawn) [Example 129, 3-{2-cyclopentyl-6-[4-(2-pyridin-2-yl-ethyl)-piperazin-1-yl]-2H-pyrazolo [3,4-d]pyrimidin-4-yl}-2-oxo-2,3-dihydro-1H-indole-5-carbonitrile] the IC50 (CDK5/GST-p25; class symbols) was over 10000 nM and the IC50 (His6-GSK-3β) was under 300 nM.
N#Cc1ccc2c(c1)C(c1nc(N3CCN(CCc4cccs4)CC3)nc3nn(C4CCCC4)cc13)C(=O)N2 (stereo not drawn) [Example 130, 3-{2-cyclopentyl-6-[4-(2-thiophen-2-yl-ethyl)-piperazin-1-yl]-2H-pyrazolo[3,4-d]pyrimidin-4-yl}-2-oxo-2,3-dihydro-1H-indole-5-carbonitrile] was tested, and the IC50 (CDK5/GST-p25; class symbols) was over 10000 nM and the IC50 (His6-GSK-3β) was under 300 nM.
N#Cc1ccc2c(c1)C(c1nc(N3CCCCC3)nc3nn(C4CCCC4)cc13)C(=O)N2 (stereo not drawn) [Example 131, 3-(2-cyclopentyl-6-piperidin-1-yl-2H-pyrazolo[3,4-d]pyrimidin-4-yl)-2-oxo-2,3-dihydro-1H-indole-5-carbonitrile] showed an IC50 (CDK5/GST-p25; class symbols) of over 10000 nM and an IC50 (His6-GSK-3β) of under 300 nM.
For N#Cc1ccc2c(c1)C(c1nc(N3CCCC3)nc3nn(C4CCCC4)cc13)C(=O)N2 (stereo not drawn) [Example 132, 3-(2-cyclopentyl-6-pyrrolidin-1-yl-2H-pyrazolo [3,4-d]pyrimidin-4-yl)-2-oxo-2,3-dihydro-1H-indole-5-carbonitrile], the IC50 (CDK5/GST-p25; class symbols) was over 10000 nM and the IC50 (His6-GSK-3β) was under 300 nM.
For N#Cc1ccc2c(c1)C(c1nc(NCc3cccnc3)nc3nn(C4CCCC4)cc13)C(=O)N2 (stereo not drawn) [Example 133, 3-{2-cyclopentyl-6-[(pyridin-3-ylmethyl)amino]-2H-pyrazolo[3,4-d]pyrimidin-4-yl}-2-oxo-2,3-dihydro-1H-indole-5-carbonitrile], the IC50 (CDK5/GST-p25; class symbols) was under 300 nM and the IC50 (His6-GSK-3β) was under 300 nM.
N#Cc1ccc2c(c1)C(c1nc(NCCc3ccccc3)nc3nn(C4CCCC4)cc13)C(=O)N2 (stereo not drawn) [Example 134, 3-(2-cyclopentyl-6-2-phenethylamino-2H-pyrazolo [3,4-d]pyrimidin-4-yl)-2-oxo-2,3-dihydro-1H-indole-5-carbonitrile] was tested, and the IC50 (CDK5/GST-p25; numeric bounds) was over 3000 nM and the IC50 (His6-GSK-3β) was under 300 nM.
In the case of N#Cc1ccc2c(c1)C(c1nc(Nc3ccc(N4CCS(=O)(=O)CC4)cc3)nc3nn(C4CCCC4)cc13)C(=O)N2 (stereo not drawn) [Example 135, 3-{2-Cyclopentyl-6-[4-(1,1-dioxo-1λ^6-thiomorpholin-4-yl)-phenylamino]-2H-pyrazolo[3,4-d]pyrimidin-4-yl}-2-oxo-2,3-dihydro-1H-indole-5-carbonitrile], the IC50 (CDK5/GST-p25; class symbols) is reported as over 10000 nM and the IC50 (His6-GSK-3β) is reported as under 300 nM.
For N#Cc1ccc2c(c1)C(c1nc(NCCN3CCCC3)nc3nn(C4CCCC4)cc13)C(=O)N2 (stereo not drawn) [Example 136, 3-[2-cyclopentyl-6-(2-pyrrolidin-1-yl-ethylamino)-2H-pyrazolo[3,4-d]pyrimidin-4-yl]-2-oxo-2,3-dihydro-1H-indole-5-carbonitrile], the IC50 (CDK5/GST-p25; numeric bounds) was over 3000 nM and the IC50 (His6-GSK-3β) was under 300 nM.
Work on CN1CCN(c2ccc(Nc3nc(C4C(=O)Nc5ccc(C#N)cc54)c4cn(C5CCCC5)nc4n3)cn2)CC1 (stereo not drawn) [Example 137, 3-{2-cyclopentyl-6-[6-(4-methyl-piperazin-1-yl)-pyridin-3-yl-amino]-2H-pyrazolo [3,4-d]pyrimidin-4-yl}-2-oxo-2,3-dihydro-1H-indole-5-carbonitrile] yielded an IC50 (CDK5/GST-p25; class symbols) of over 10000 nM and an IC50 (His6-GSK-3β) of under 300 nM.
In the case of CN(C)CCCNc1nc(C2C(=O)Nc3ccc(C#N)cc32)c2cn(C3CCCC3)nc2n1 (stereo not drawn) [Example 138, 3-[2-cyclopentyl-6-(3-dimethylamino-propylamino)-2H-pyrazolo[3,4-d]pyrimidin-4-yl]-2-oxo-2,3-dihydro-1H-indole-5-carbonitrile], the IC50 (CDK5/GST-p25; class symbols) is reported as 300 to 3000 nM and the IC50 (His6-GSK-3β) is reported as under 300 nM.
In the case of N#Cc1ccc2c(c1)C(c1nc(NCCCN3CCOCC3)nc3nn(C4CCCC4)cc13)C(=O)N2 (stereo not drawn) [Example 139, 3-[2-cyclopentyl-6-(3-morpholin-4-yl-propylamino)-2H-pyrazolo[3,4-d]pyrimidin-4-yl]-2-oxo-2,3-dihydro-1H-indole-5-carbonitrile], the IC50 (CDK5/GST-p25; class symbols) is reported as under 300 nM and the IC50 (His6-GSK-3β) is reported as under 300 nM.
